Legend:
RORγ LBD = RORγ LBD (Homo sapiens (Human), UniProt P51449); assay: ROR gamma radio-ligand binding assay (3H 25-Hydroxycholesterol competitive displacement, dextran charcoal method); settings: for inhibition at 1 µM: 1 μM compound; for inhibition at 10 µM: 10 μM compound; for IC50: in range
Experimental: Gene corresponding to the ligand binding domain of RORγ (247-497 amino acids) was sub-cloned into pGEX4T1 vector. Transformants of E. coli BL21 (DE3) containing pGEX4T1-RORγ (247-497) were grown to an OD of 0.8 at 37° C. and induced with 0.5 mM isopropyl-β-D-thiogalactopyranoside (IPTG) for 18 hours at 18° C. Cells were harvested and resuspended in 20 mM Tris-HCl (pH 8.5), 0.3 M NaCl, 10% Glycerol, 2 mM β-Me (β-Mercaptoethanol), 2 mM CHAPS, protease inhibitors, 0.6 mM PMSF and Lysozyme. Supernatant of lysate was passed through glutathione sepharose 4B affinity beads (GE health care) pre-equilibrated with 20 mM Tris-HCl (pH 8.5), 0.3 M NaCl, 10% Glycerol, 2 mM β-Me. RORγ was eluted using a gradient of reduced glutathione (3-20 mM). Fractions containing RORγ protein were pooled, concentrated and passed through Superdex 75 gel filtration (GE health care) column equilibrated with 20 mM Na-phosphate pH 8.0, 0.2 M NaCl, 10% glycerol. The peak fractions from gel filtration column were pooled and stored at −80° C. for Binding assay.
ROR gamma radioligand binding was performed using ^3H 25-Hydroxycholesterol in a competitive displacement assay using dextran charcoal method. Using 5 nM ^3H 25-Hydroxycholesterol with 300 ng RORγ LBD (in house expressed in E. coli) along with the compound were incubated in the binding buffer (50 mM HEPES, pH 7.5, 150 mM NaCl, 0.01% BSA and 5 mM MgCl2) for 30 min at room temperature. Then dextran-charcoal mixture (0.5% charcoal: 0.05% dextran) was used for separation and the supernatant was read on the Perkin Elmer Trilux Microbeta counter. Dose response curves were generated for 10 compound concentrations using GraphPad Prism software Version 5 (San Diego, Calif., USA) using non-linear regression curve fit for sigmoidal dose response (variable slope).

[1] = biological target: ROR gamma ligand binding domain (Homo sapiens (Human), UniProt P51449); assay: ROR gamma luciferase reporter assay (GAL4-ROR gamma LBD, HEK293 cells); assay type: cell-based; settings: 48 hours treatment, read-out: RORγ luciferase Reporter assay: IC50 (nM) (in range)
Sequence of ROR gamma ligand binding domain (P51449 269-508): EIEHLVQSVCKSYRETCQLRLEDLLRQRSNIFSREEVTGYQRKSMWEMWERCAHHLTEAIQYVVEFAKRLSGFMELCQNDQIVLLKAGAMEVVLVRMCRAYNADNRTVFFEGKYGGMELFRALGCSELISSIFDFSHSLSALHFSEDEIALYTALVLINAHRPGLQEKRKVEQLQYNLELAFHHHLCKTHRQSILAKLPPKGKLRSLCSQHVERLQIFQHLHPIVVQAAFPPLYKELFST
Method in brief: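 HEK293 cells were co-transfected with a GAL4 DBD–RORγ LBD fusion (hRluc vector) and a 9xGAL4 UAS luc2P reporter, then treated with compounds for 48 h. Bright-Glo luminescence was used to derive potency.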

Sequence of RORγ LBD (P51449 268-518): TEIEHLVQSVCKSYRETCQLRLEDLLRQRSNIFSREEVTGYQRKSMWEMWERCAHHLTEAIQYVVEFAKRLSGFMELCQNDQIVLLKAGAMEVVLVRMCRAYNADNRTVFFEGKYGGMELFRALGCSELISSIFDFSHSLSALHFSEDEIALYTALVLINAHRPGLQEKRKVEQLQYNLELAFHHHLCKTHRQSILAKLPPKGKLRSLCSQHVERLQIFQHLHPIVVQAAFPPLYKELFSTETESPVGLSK

| inhibition at 1 µM (RORγ LBD) [%] | inhibition at 10 µM (RORγ LBD) [%] | IC50 (RORγ LBD) [nM] | IC50 [1] [nM] | SMILES |
| --- | --- | --- | --- | --- |
| 84 | 89 | < 150 | 100 to 500 | CCS(=O)(=O)c1ccc(CC(=O)Nc2ccc3c(n2)CCC(C)(c2ccc(OC)nc2)C3=O)cc1 (stereo not drawn) [Compound 2, 2-(4-(ethylsulfonyl)phenyl)-N-(6-(6-methoxypyridin-3-yl)-6-methyl-5-oxo-5,6,7,8-tetrahydroquinolin-2-yl)acetamide] |
| 72 | 96 | 150 to 300 | 100 to 500 | CCS(=O)(=O)c1ccc(CC(=O)Nc2ccc3c(n2)CCC(C)(c2nccn4ccnc24)C3=O)cc1 (stereo not drawn) [Compound 6, 2-(4-(ethylsulfonyl)phenyl)-N-(6-(imidazo[1,2-a]pyrazin-8-yl)-6-methyl-5-oxo-5,6,7,8-tetrahydroquinolin-2-yl)acetamide] |
| 91 | 100 | < 150 | 100 to 500 | CCS(=O)(=O)c1ccc(CC(=O)Nc2ccc3c(n2)CCC(C)(c2cc(C)nc(C)n2)C3=O)cc1 (stereo not drawn) [Compound 7, N-(6-(2,6-dimethylpyrimidin-4-yl)-6-methyl-5-oxo-5,6,7,8-tetrahydroquinolin-2-yl)-2-(4-(ethylsulfonyl)phenyl)acetamide] |
| 90 | 100 | < 150 | 100 to 500 | CCS(=O)(=O)c1ccc(CC(=O)Nc2ccc3c(n2)CCC(C)(c2nccn4cc(C)nc24)C3=O)cc1 (stereo not drawn) [Compound 9, 2-(4-(ethylsulfonyl)phenyl)-N-(6-methyl-6-(2-methylimidazo[1,2-a]pyrazin-8-yl)-5-oxo-5,6,7,8-tetrahydroquinolin-2-yl)acetamide] |
| 25 | 71 |  | > 500 | CCS(=O)(=O)c1ccc(CC(=O)Nc2nc3c(cc2C)C(=O)C(C)(c2nccn4ccnc24)CC3)cc1 (stereo not drawn) [Compound 11, 2-(4-(ethylsulfonyl)phenyl)-N-(6-(imidazo[1,2-a]pyrazin-8-yl)-3,6-dimethyl-5-oxo-5,6,7,8-tetrahydroquinolin-2-yl)acetamide] |
|  |  | < 150 | 100 to 500 | CCS(=O)(=O)c1ccc(CC(=O)Nc2ccc3c(n2)CCC(C)(c2ccc(OC)nn2)C3=O)cc1 (stereo not drawn) [Compound 12, 2-(4-(ethylsulfonyl)phenyl)-N-(6-(6-methoxypyridazin-3-yl)-6-methyl-5-oxo-5,6,7,8-tetrahydroquinolin-2-yl)acetamide] |
| 0 | 26 |  | > 500 | CCC1(c2nccn3ccnc23)CCc2nc(NC(=O)Cc3ccc(S(=O)(=O)CC)cc3)ccc2C1=O (stereo not drawn) [Compound 14, N-(6-ethyl-6-(imidazo[1,2-a]pyrazin-8-yl)-5-oxo-5,6,7,8-tetrahydroquinolin-2-yl)-2-(4-(ethylsulfonyl)phenyl)acetamide] |
| 95 | 92 | < 150 | < 100 | CCS(=O)(=O)c1ccc(CC(=O)Nc2ccc3c(n2)CCC(C)(c2nccn4cccc24)C3=O)cc1 (stereo not drawn) [Compound 15, 2-(4-(ethylsulfonyl)phenyl)-N-(6-methyl-5-oxo-6-(pyrrolo[1,2-a]pyrazin-1-yl)-5,6,7,8-tetrahydroquinolin-2-yl)acetamide] |
| 86 | 93 | 150 to 300 | < 100 | CCS(=O)(=O)c1ccc(CC(=O)Nc2ccc3c(n2)CCC(C)(c2nc(C)cn4ccnc24)C3=O)cc1 (stereo not drawn) [Compound 16, 2-(4-(ethylsulfonyl)phenyl)-N-(6-methyl-6-(6-methylimidazo[1,2-a]pyrazin-8-yl)-5-oxo-5,6,7,8-tetrahydroquinolin-2-yl)acetamide] |
| 65 | 99 | > 300 | 100 to 500 | CCS(=O)(=O)c1ccc(CC(=O)Nc2cc(C)c3c(n2)CCC(C)(c2nccn4ccnc24)C3=O)cc1 (stereo not drawn) [Compound 26, 2-(4-(ethylsulfonyl)phenyl)-N-(6-(imidazo[1,2-a]pyrazin-8-yl)-4,6-dimethyl-5-oxo-5,6,7,8-tetrahydroquinolin-2-yl)acetamide] |
| 44 | 88 |  | > 500 | CCS(=O)(=O)c1ccc(CC(=O)Nc2ccc3c(n2)CCC(C)(c2ccc(O)nc2)C3=O)cc1 (stereo not drawn) [Compound 40, 2-(4-(ethylsulfonyl)phenyl)-N-(6-(6-hydroxypyridin-3-yl)-6-methyl-5-oxo-5,6,7,8-tetrahydroquinolin-2-yl)acetamide] |
| 47 | 82 |  | > 500 | CCc1ccc(C2(C)CCc3nc(NC(=O)Cc4ccc(S(=O)(=O)CC)cc4)ccc3C2=O)nn1 (stereo not drawn) [Compound 41, N-(6-(6-ethylpyridazin-3-yl)-6-methyl-5-oxo-5,6,7,8-tetrahydroquinolin-2-yl)-2-(4-(ethylsulfonyl)phenyl)acetamide] |

Further lines, the molecule ahead of its results:

| SMILES | inhibition at 1 µM (RORγ LBD) [%] | inhibition at 10 µM (RORγ LBD) [%] | IC50 (RORγ LBD) [nM] | IC50 [1] [nM] |
| --- | --- | --- | --- | --- |
| CCS(=O)(=O)c1ccc(CC(=O)Nc2cc(C)c3c(n2)CCC(C)(c2ccc(OC)nc2)C3=O)cc1 (stereo not drawn) [Compound 17, 2-(4-(ethylsulfonyl)phenyl)-N-(6-(6-methoxypyridin-3-yl)-4,6-dimethyl-5-oxo-5,6,7,8-tetrahydroquinolin-2-yl)acetamide] | 92 | 96 |  | < 100 |
| CCS(=O)(=O)c1ccc(CC(=O)Nc2cc(C)c3c(n2)CCC(C)(c2ccc(OC)cn2)C3=O)cc1 (stereo not drawn) [Compound 20, 2-(4-(ethylsulfonyl)phenyl)-N-(6-(5-methoxypyridin-2-yl)-4,6-dimethyl-5-oxo-5,6,7,8-tetrahydroquinolin-2-yl)acetamide] | 76 | 95 |  | 100 to 500 |
| CCS(=O)(=O)c1ccc(CC(=O)Nc2cc(C)c3c(n2)CCC(C)(c2nccc(OC)n2)C3=O)cc1 (stereo not drawn) [Compound 21, 2-(4-(ethylsulfonyl)phenyl)-N-(6-(4-methoxypyrimidin-2-yl)-4,6-dimethyl-5-oxo-5,6,7,8-tetrahydroquinolin-2-yl)acetamide] | 94 | 92 | 150 to 300 | < 100 |
| CCS(=O)(=O)c1ccc(CC(=O)Nc2cc(C)c3c(n2)CCC(C)(c2cc(OC)ccn2)C3=O)cc1 (stereo not drawn) [Compound 22, 2-(4-(ethylsulfonyl)phenyl)-N-(6-(4-methoxypyridin-2-yl)-4,6-dimethyl-5-oxo-5,6,7,8-tetrahydroquinolin-2-yl)acetamide] | 76 | 95 |  | 100 to 500 |
| CCS(=O)(=O)c1ccc(CC(=O)Nc2cc(C)c3c(n2)CCC(C)(c2cc(C)nc(C)n2)C3=O)cc1 (stereo not drawn) [Compound 28, N-(6-(2,6-dimethylpyrimidin-4-yl)-4,6-dimethyl-5-oxo-5,6,7,8-tetrahydroquinolin-2-yl)-2-(4-(ethylsulfonyl)phenyl)acetamide] | 77 | 100 | 150 to 300 | 100 to 500 |
| CCS(=O)(=O)c1ccc(CC(=O)Nc2cc(C)c3c(n2)CCC(C)(c2nc(C)cc(C)n2)C3=O)cc1 (stereo not drawn) [Compound 29, N-(6-(4,6-dimethylpyrimidin-2-yl)-4,6-dimethyl-5-oxo-5,6,7,8-tetrahydroquinolin-2-yl)-2-(4-(ethylsulfonyl)phenyl)acetamide] | 84 | 91 | 150 to 300 | < 100 |
| CCS(=O)(=O)c1ccc(CC(=O)Nc2cc(C)c3c(n2)CCC(C)(c2ccc(OC)nn2)C3=O)cc1 (stereo not drawn) [Compound 31, 2-(4-(ethylsulfonyl)phenyl)-N-(6-(6-methoxypyridazin-3-yl)-4,6-dimethyl-5-oxo-5,6,7,8-tetrahydroquinolin-2-yl)acetamide] | 90 | 88 | < 150 | < 100 |
| CCS(=O)(=O)c1ccc(CC(=O)Nc2cc(C)c3c(n2)CCC(C)(c2ccc(C)nn2)C3=O)cc1 (stereo not drawn) [Compound 34, N-(4,6-dimethyl-6-(6-methylpyridazin-3-yl)-5-oxo-5,6,7,8-tetrahydroquinolin-2-yl)-2-(4-(ethylsulfonyl)phenyl)acetamide] | 74 | 97 | > 300 | > 500 |
| COc1ccc(C2(C)CCc3nc(NC(=O)Cc4ccc(S(C)(=O)=O)cc4)cc(C)c3C2=O)nn1 (stereo not drawn) [Compound 35, N-(6-(6-methoxypyridazin-3-yl)-4,6-dimethyl-5-oxo-5,6,7,8-tetrahydroquinolin-2-yl)-2-(4-(methylsulfonyl)phenyl)acetamide] | 80 | 98 | 150 to 300 | 100 to 500 |

Source: US11229636B2, “Substituted tetrahydroquinolinone compounds as ROR gamma modulators” (Aurigene Discovery Technologies Limited, priority 2015, dated 2022)
